pIC50: −log10 of the molar value.
Test: Binding affinity for endothelin B receptor by measuring its ability to displace [125I]-ET-3 from porcine cerebellar tissue

SMILES	pIC50
CCCCN(CCCC)C(=O)CN1C[C@H](c2ccc3c(c2)OCO3)[C@@H](C(=O)O)[C@@H]1CC(C)(C)CCC [(2S,3R,4S)-4-Benzo[1,3]dioxol-5-yl-1-dibutylcarbamoylmethyl-2-(2,2-dimethyl-pentyl)-pyrrolidine-3-carboxylic acid]	4.21
CCCCN(CCCC)C(=O)CN1C[C@H](c2ccc3c(c2)OCO3)[C@@H](C(=O)O)[C@@H]1CCC1SCCS1 [(2S,3R,4S)-4-Benzo[1,3]dioxol-5-yl-1-dibutylcarbamoylmethyl-2-(2-[1,3]dithiolan-2-yl-ethyl)-pyrrolidine-3-carboxylic acid]	4.53
CCCCN(CCCC)C(=O)CN1C[C@H](c2ccc3c(c2)OCO3)[C@@H](C(=O)O)[C@@H]1CC(CCC)CCC [(2S,3R,4S)-4-Benzo[1,3]dioxol-5-yl-1-dibutylcarbamoylmethyl-2-(2-propyl-pentyl)-pyrrolidine-3-carboxylic acid]	4.02
CCCCN(CCCC)C(=O)CN1C[C@H](c2ccc3c(c2)OCO3)[C@@H](C(=O)O)[C@@H]1CC/C=C(/C)CC [(2S,3R,4S)-4-Benzo[1,3]dioxol-5-yl-1-dibutylcarbamoylmethyl-2-((Z)-4-methyl-hex-3-enyl)-pyrrolidine-3-carboxylic acid]	5.15
CCCCN(CCCC)C(=O)CN1C[C@H](c2ccc3c(c2)OCO3)[C@@H](C(=O)O)[C@@H]1CCC1OCCO1 [(2S,3R,4S)-4-Benzo[1,3]dioxol-5-yl-1-dibutylcarbamoylmethyl-2-(2-[1,3]dioxolan-2-yl-ethyl)-pyrrolidine-3-carboxylic acid]	< 4.00
CCCCN(CCCC)C(=O)CN1C[C@H](c2ccc3c(c2)OCO3)[C@@H](C(=O)O)[C@@H]1CCC=C1CC1 [(2S,3R,4S)-4-Benzo[1,3]dioxol-5-yl-2-(3-cyclopropylidene-propyl)-1-dibutylcarbamoylmethyl-pyrrolidine-3-carboxylic acid]	5.00
CCCCN(CCCC)C(=O)CN1C[C@H](c2ccc3c(c2)OCO3)[C@@H](C(=O)O)[C@@H]1CC(C)(C)C1OCCO1 [(2S,3R,4S)-4-Benzo[1,3]dioxol-5-yl-1-dibutylcarbamoylmethyl-2-(2-[1,3]dioxolan-2-yl-2-methyl-propyl)-pyrrolidine-3-carboxylic acid]	< 4.00
CCCCN(CCCC)C(=O)CN1C[C@H](c2ccc3c(c2)OCO3)[C@@H](C(=O)O)[C@@H]1CCc1cccn1C [(2S,3R,4S)-4-Benzo[1,3]dioxol-5-yl-1-dibutylcarbamoylmethyl-2-[2-(1-methyl-1H-pyrrol-2-yl)-ethyl]-pyrrolidine-3-carboxylic acid]	4.36
CCCCN(CCCC)C(=O)CN1C[C@H](c2ccc3c(c2)OCO3)[C@@H](C(=O)O)[C@@H]1CCc1ccccn1 [(2S,3R,4S)-4-Benzo[1,3]dioxol-5-yl-1-dibutylcarbamoylmethyl-2-(2-pyridin-2-yl-ethyl)-pyrrolidine-3-carboxylic acid]	4.85
CCCCN(CCCC)C(=O)CN1C[C@H](c2ccc3c(c2)OCO3)[C@@H](C(=O)O)[C@@H]1CC(C)(C)C=C(C)C [(2S,3R,4S)-4-Benzo[1,3]dioxol-5-yl-1-dibutylcarbamoylmethyl-2-(2,2,4-trimethyl-pent-3-enyl)-pyrrolidine-3-carboxylic acid]	4.19
CCCCC[C@H]1[C@H](C(=O)O)[C@@H](c2ccc3c(c2)OCO3)CN1CC(=O)N(CCCC)CCCC [(2S,3R,4S)-4-Benzo[1,3]dioxol-5-yl-1-dibutylcarbamoylmethyl-2-pentyl-pyrrolidine-3-carboxylic acid]	4.33

More lines, now with the values ahead:

pIC50	SMILES
4.14	CCCCN(CCCC)C(=O)CN1C[C@H](c2ccc3c(c2)OCO3)[C@@H](C(=O)O)[C@@H]1CCC(CC)CC [(2S,3R,4S)-4-Benzo[1,3]dioxol-5-yl-1-dibutylcarbamoylmethyl-2-(3-ethyl-pentyl)-pyrrolidine-3-carboxylic acid]
4.32	C/C=C(\C)CC[C@H]1[C@H](C(=O)O)[C@@H](c2ccc3c(c2)OCO3)CN1CC(=O)N(CCCC)CCCC [(2S,3R,4S)-4-Benzo[1,3]dioxol-5-yl-1-dibutylcarbamoylmethyl-2-((E)-3-methyl-pent-3-enyl)-pyrrolidine-3-carboxylic acid]
4.15	CCCCN(CCCC)C(=O)CN1C[C@H](c2ccc3c(c2)OCO3)[C@@H](C(=O)O)[C@@H]1CC(C)CCC (stereo partly drawn) [(2S,3R,4S)-4-Benzo[1,3]dioxol-5-yl-1-dibutylcarbamoylmethyl-2-(2-methyl-pentyl)-pyrrolidine-3-carboxylic acid]
4.53	CCCCN(CCCC)C(=O)CN1C[C@H](c2ccc3c(c2)OCO3)[C@@H](C(=O)O)[C@@H]1CCc1nc(C)c(C)o1 [(2S,3R,4S)-4-Benzo[1,3]dioxol-5-yl-1-dibutylcarbamoylmethyl-2-[2-(4,5-dimethyl-oxazol-2-yl)-ethyl]-pyrrolidine-3-carboxylic acid]
4.47	CCCCN(CCCC)C(=O)CN1C[C@H](c2ccc3c(c2)OCO3)[C@@H](C(=O)O)[C@@H]1CCCCC(F)(F)F [(2S,3R,4S)-4-Benzo[1,3]dioxol-5-yl-1-dibutylcarbamoylmethyl-2-(5,5,5-trifluoro-pentyl)-pyrrolidine-3-carboxylic acid]
4.07	CCCCN(CCCC)C(=O)CN1C[C@H](c2ccc3c(c2)OCO3)[C@@H](C(=O)O)[C@@H]1CCN1CCCCC1=O [(2S,3R,4S)-4-Benzo[1,3]dioxol-5-yl-1-dibutylcarbamoylmethyl-2-[2-(2-oxo-piperidin-1-yl)-ethyl]-pyrrolidine-3-carboxylic acid]
< 4.00	CCCCN(CCCC)C(=O)CN1C[C@H](c2ccc3c(c2)OCO3)[C@@H](C(=O)O)[C@@H]1CCC1CCOCC1 [(2S,3R,4S)-4-Benzo[1,3]dioxol-5-yl-1-dibutylcarbamoylmethyl-2-[2-(tetrahydro-pyran-4-yl)-ethyl]-pyrrolidine-3-carboxylic acid]
4.44	CCCCN(CCCC)C(=O)CN1C[C@H](c2ccc3c(c2)OCO3)[C@@H](C(=O)O)[C@@H]1C(C)(C)CCCC [(2R,3R,4S)-4-Benzo[1,3]dioxol-5-yl-1-dibutylcarbamoylmethyl-2-(1,1-dimethyl-pentyl)-pyrrolidine-3-carboxylic acid]
4.21	CCCCN(CCCC)C(=O)CN1C[C@H](c2ccc3c(c2)OCO3)[C@@H](C(=O)O)[C@@H]1CCC1OCCCO1 [(2S,3R,4S)-4-Benzo[1,3]dioxol-5-yl-1-dibutylcarbamoylmethyl-2-(2-[1,3]dioxan-2-yl-ethyl)-pyrrolidine-3-carboxylic acid]
4.30	CCCCN(CCCC)C(=O)CN1C[C@H](c2ccc3c(c2)OCO3)[C@@H](C(=O)O)[C@@H]1CCCC1OCCO1 [(2S,3R,4S)-4-Benzo[1,3]dioxol-5-yl-1-dibutylcarbamoylmethyl-2-(3-[1,3]dioxolan-2-yl-propyl)-pyrrolidine-3-carboxylic acid]
4.48	CCCCN(CCCC)C(=O)CN1C[C@H](c2ccc3c(c2)OCO3)[C@@H](C(=O)O)[C@@H]1CCC=C(C)C [(2S,3R,4S)-4-Benzo[1,3]dioxol-5-yl-1-dibutylcarbamoylmethyl-2-(4-methyl-pent-3-enyl)-pyrrolidine-3-carboxylic acid]
4.32	CCCCN(CCCC)C(=O)CN1C[C@H](c2ccc3c(c2)OCO3)[C@@H](C(=O)O)[C@@H]1CCC1CCCCO1 (stereo partly drawn) [(2S,3R,4S)-4-Benzo[1,3]dioxol-5-yl-1-dibutylcarbamoylmethyl-2-[2-(tetrahydro-pyran-2-yl)-ethyl]-pyrrolidine-3-carboxylic acid]

— BindingDB's records for doi:10.1021/jm980217s (Abbott Laboratories, 1998)
